US20130315843A1, “COMPOSITION FOR REDUCTION OF TRPA1 AND TRPV1 SENSATIONS” (priority 2012, published 2013)
Structures can show the parent of a compound that is named as a salt. Where two headings read alike, the source gives them in different places.

Tests used:
human TRPA1 [1] = target: T1, human TRPA1 (Homo sapiens, UniProt O75762); test: FLIPR Ca2+ assay, reduction of hydrogen peroxide activation of TRPA1; type: cell-based; parameters: expressed in transfected cells; settings: for Block of hydrogen peroxide activation of TRPA1: 100 μM antagonist vs 500 μM hydrogen peroxide; for Average Ca++ Counts / inhibition at 100 µM: compound 100 μM against 200 μM hydrogen peroxide, Sets 1-4; for inhibition at 100 µM: read-out: % Reduction of Hydrogen Peroxide TRPA1 Activation
T1 sequence (O75762 whole entry): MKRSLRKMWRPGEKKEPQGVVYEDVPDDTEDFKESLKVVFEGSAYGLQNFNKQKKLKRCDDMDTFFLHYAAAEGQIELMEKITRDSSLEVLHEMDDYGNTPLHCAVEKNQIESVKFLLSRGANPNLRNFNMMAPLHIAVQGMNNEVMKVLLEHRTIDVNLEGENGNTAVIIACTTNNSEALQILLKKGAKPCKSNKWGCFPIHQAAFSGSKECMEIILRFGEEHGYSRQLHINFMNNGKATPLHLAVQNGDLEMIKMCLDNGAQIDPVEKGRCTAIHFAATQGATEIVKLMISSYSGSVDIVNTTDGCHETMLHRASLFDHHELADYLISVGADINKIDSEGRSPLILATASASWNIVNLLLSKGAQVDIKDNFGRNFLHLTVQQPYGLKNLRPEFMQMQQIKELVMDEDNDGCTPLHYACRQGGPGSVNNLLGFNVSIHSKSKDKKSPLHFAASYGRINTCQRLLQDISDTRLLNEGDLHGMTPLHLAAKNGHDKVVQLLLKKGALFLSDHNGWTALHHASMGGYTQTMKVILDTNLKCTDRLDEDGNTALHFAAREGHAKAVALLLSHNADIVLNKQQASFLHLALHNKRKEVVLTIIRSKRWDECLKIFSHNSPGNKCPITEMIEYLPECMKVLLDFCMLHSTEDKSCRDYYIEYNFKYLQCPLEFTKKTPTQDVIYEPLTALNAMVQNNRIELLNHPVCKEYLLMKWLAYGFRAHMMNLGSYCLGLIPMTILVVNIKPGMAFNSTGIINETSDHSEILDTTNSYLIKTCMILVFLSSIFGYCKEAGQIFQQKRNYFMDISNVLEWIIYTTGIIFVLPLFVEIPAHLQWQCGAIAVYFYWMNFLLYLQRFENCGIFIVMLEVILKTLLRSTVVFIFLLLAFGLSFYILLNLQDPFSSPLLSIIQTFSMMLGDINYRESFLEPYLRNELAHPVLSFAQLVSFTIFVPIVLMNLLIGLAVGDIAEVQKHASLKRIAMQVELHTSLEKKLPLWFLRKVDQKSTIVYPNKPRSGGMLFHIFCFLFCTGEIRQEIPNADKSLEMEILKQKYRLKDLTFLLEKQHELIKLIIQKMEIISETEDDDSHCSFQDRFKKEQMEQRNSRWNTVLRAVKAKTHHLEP
Description: After centrifugation, a pellet of cells was formed in the bottom of the tube separating them from the supernatant solution.
The pelleted cells were re-suspended in 10 ml assay buffer and 90 μl aliquots (˜50,000 cells) per well delivered to a 96-well assay plate containing 10 μl of test compounds ([…]) or buffer control and incubated at room temperature for 30 minutes.

human TRPV1 [2] = target: T2, human TRPV1 (Homo sapiens, UniProt Q8NER1); test: FLIPR Ca2+ assay, reduction of L-Menthol activation of TRPV1; settings: for inhibition at 100 µM: read-out: % Reduction of L-Menthol TRPV1 Activation
T2 sequence (Q8NER1 whole entry): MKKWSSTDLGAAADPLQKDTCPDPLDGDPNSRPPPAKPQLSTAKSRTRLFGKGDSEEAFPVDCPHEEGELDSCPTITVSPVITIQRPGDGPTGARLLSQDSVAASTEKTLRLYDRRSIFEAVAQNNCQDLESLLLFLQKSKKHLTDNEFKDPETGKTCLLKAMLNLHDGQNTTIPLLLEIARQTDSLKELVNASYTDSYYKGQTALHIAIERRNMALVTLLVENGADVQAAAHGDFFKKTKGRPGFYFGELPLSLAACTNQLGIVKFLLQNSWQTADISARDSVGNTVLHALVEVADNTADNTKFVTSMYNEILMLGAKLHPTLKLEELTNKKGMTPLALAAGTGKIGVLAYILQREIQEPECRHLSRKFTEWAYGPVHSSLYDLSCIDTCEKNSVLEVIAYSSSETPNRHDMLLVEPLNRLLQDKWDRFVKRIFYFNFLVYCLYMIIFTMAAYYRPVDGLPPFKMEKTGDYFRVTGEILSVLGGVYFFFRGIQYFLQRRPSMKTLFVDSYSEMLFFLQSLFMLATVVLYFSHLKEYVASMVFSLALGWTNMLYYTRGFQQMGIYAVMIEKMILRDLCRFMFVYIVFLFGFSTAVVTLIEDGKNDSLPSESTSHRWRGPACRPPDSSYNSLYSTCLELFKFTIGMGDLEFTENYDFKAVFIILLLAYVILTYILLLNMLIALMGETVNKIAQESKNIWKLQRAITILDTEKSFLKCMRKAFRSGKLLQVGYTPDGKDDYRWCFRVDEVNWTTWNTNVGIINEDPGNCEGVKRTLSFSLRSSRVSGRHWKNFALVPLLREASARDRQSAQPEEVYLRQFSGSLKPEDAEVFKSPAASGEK

human TRPA1 [3] = target: T1, human TRPA1; test: FLIPR Ca2+ assay, reduction of L-Menthol activation of TRPA1
human TRPV1 [4] = target: T2, human TRPV1; test: FLIPR Ca2+ assay, reduction of hydrogen peroxide activation of TRPV1; type: cell-based; parameters: expressed in transfected cells; settings: antagonist 100 μM against 500 μM hydrogen peroxide
Description: Cells were detached with addition of 10 ml of PBS (phosphate buffered saline) by hand shaking gently. Cells were transferred to a 50 ml tube and centrifuged at 850 rpm for 3 minutes to remove PBS.
The pelleted cells were re-suspended in 10 ml assay buffer and 90 μl aliquots (˜50,000 cells) per well delivered to a 96-well assay plate containing 10 μl of test compounds (1 mM in assay buffer, […]) or buffer control and incubated at room temperature for 30 minutes.

[5] = antagonist 100 μM against 1 mM L-Menthol
[6] = 100 μM antagonist vs 1 mM L-Menthol

Compound | Average Ca2+ Counts (human TRPV1 [2]; [5]) [Counts] | inhibition at 100 µM (human TRPV1 [2]) [%] | Block of L-Menthol activation of TRPA1 (human TRPA1 [3]; [6]) | further results
COc1nccnc1CC(C)C [2-isobutyl-3-methoxypyrazine] | 4020.0 | 37.2 | BLOCK BOTH MENTHOL AND H2O2 ON TRPA1 | Block of hydrogen peroxide activation of TRPA1 (human TRPA1 [1]): BLOCK BOTH MENTHOL AND H2O2 ON TRPA1; Average Ca++ Counts (human TRPA1 [1]): 3067.5 Counts; inhibition at 100 µM (human TRPA1 [1]): 56.4%
CC1=CC(=O)[C@@H](C(C)C)CC1 [L-Piperitone] | – | – | – | % Reduction of Hydrogen Peroxide TRPV1 Activation (human TRPV1 [4]): 58%
C=CCOC(=O)CCC1CCCCC1 [allyl cyclohexanepropionate] | 4895.5 | 23.5 | BLOCK BOTH MENTHOL AND H2O2 ON TRPA1 | Block of hydrogen peroxide activation of TRPA1 (human TRPA1 [1]): BLOCK BOTH MENTHOL AND H2O2 ON TRPA1; Average Ca++ Counts (human TRPA1 [1]): 3443.0 Counts; inhibition at 100 µM (human TRPA1 [1]): 51.1%
C=C1CC/C=C(\C)CC[C@@H]2[C@@H]1CC2(C)C [beta-caryophyllene] | 2744.5 | – | BLOCK ONLY MENTHOL/TRPA1 | % Reduction of L-Menthol TRPV1 Activation (human TRPV1 [2]; [5]): 32.0%
O=C(O)c1ccc(O)cc1O [beta-resorcylic acid] | 1317.3 | 31 | BLOCK ONLY MENTHOL/TRPA1 | –
C[N+](C)(C)CCO.O=C([O-])C(O)C(O)C(=O)O (stereo not shown) [choline bitartrate] | – | – | – | % Reduction of L-Menthol TRPV1 Activation (human TRPV1 [2]): 39.1%; Average Ca2+ Counts (human TRPV1 [2]): 1141.3 Counts; Block of L-Menthol activation of TRPA1 (human TRPA1 [3]): BLOCK ONLY MENTHOL/TRPA1
CC/C=C\CCOC(=O)CCC [cis-3-hexenyl butyrate] | 2987.5 | 26 | BLOCK ONLY MENTHOL/TRPA1 | –
CCCC/C=C\CCO [cis-3-octen-1-ol] | 1424.7 | 26 | BLOCK ONLY MENTHOL/TRPA1 | –
CC(C)=CCCC(C)CCOC=O (stereo not shown) [citronellyl formate] | 1097.0 | 41.2 | BLOCK ONLY MENTHOL/TRPA1 | –
C=CCSCC=C [diallyl sulfide] | 1293.3 | 32.1 | BLOCK ONLY MENTHOL/TRPA1 | –
CCCCOC(=O)CCCCCCCCC(=O)OCCCC [dibutyl sebacate] | 1398.0 | 27.3 | BLOCK ONLY MENTHOL/TRPA1 | –
O=C(O)CN(CCN(CC(=O)O)CC(=O)O)CC(=O)O [edta] | – | – | – | % Reduction of L-Menthol TRPV1 Activation (human TRPV1 [2]): 34.8%; Average Ca2+ Counts (human TRPV1 [2]): 1236.0 Counts; Block of L-Menthol activation of TRPA1 (human TRPA1 [3]): BLOCK ONLY MENTHOL/TRPA1
CCOC(=O)C(=O)CC(=O)CC [ethyl 2,4-dioxohexanoate] | 1000.3 | 45.7 | BLOCK ONLY MENTHOL/TRPA1 | –
CCOC(=O)C(Cc1ccccc1)C(C)=O (stereo not shown) [ethyl 2-benzylacetoacetate] | 1548.3 | 20.3 | BLOCK ONLY MENTHOL/TRPA1 | –
CCOC(=O)CCc1ccco1 [ethyl 3-(2-furyl)propionate] | 4446.5 | 30.5 | BLOCK ONLY MENTHOL/TRPA1 | –
CCOC(=O)C1OC1c1ccccc1 (stereo not shown) [ethyl 3-phenylglycidate] | 1987.0 | – | BLOCK ONLY MENTHOL/TRPA1 | % Reduction of L-Menthol TRPV1 Activation (human TRPV1 [2]; [5]): 50.8%
C=CCCCC(=O)OCC [ethyl 5-hexenoate] | 1084.0 | 41.8 | BLOCK ONLY MENTHOL/TRPA1 | –
CCCCCC(=O)OCC [ethyl hexanoate] | 3655.5 | 42.9 | BLOCK ONLY MENTHOL/TRPA1 | –
CCCCCCCC/C=C\CCCCCCCC(=O)OCC [ethyl oleate] | 1431.3 | 25.7 | BLOCK ONLY MENTHOL/TRPA1 | –
CCOC(=O)CC [ethyl propionate] | 2712.0 | 32.8 | BLOCK ONLY MENTHOL/TRPA1 | –
CCC/C=C/C(=O)OCC [ethyl trans-2-hexenoate] | 1102.7 | 40.9 | BLOCK ONLY MENTHOL/TRPA1 | –
CCCCC/C=C/CCC(=O)OCC [ethyl trans-4-decenoate] | 1454.3 | 24.6 | BLOCK ONLY MENTHOL/TRPA1 | –
